In publication PMC6269792, “Arylsulfonylamino-Benzanilides as Inhibitors of the Apical Sodium-Dependent Bile Salt Transporter (SLC10A2)” (Molecules, 2013):

How the values were obtained:
[1] = system: ASBT; conditions: read-out: IC50 against ASBT; cited from earlier work
[2] = biological target: T1, Human ASBT (Homo sapiens, UniProt Q12908); experiment: ASBT inhibition assay: [3H]-taurocholic acid uptake in HEK293T cells transiently transfected with human ASBT; type: cell-based; conditions: for inhibition at 10 µM: HEK-293T; for IC50: inhibitor concentration that gives 50% taurocholate uptake compared to no inhibitor control
T1 construct: expressed in transfected cells; host or cells: HEK293T
T1 sequence (Q12908 1-348): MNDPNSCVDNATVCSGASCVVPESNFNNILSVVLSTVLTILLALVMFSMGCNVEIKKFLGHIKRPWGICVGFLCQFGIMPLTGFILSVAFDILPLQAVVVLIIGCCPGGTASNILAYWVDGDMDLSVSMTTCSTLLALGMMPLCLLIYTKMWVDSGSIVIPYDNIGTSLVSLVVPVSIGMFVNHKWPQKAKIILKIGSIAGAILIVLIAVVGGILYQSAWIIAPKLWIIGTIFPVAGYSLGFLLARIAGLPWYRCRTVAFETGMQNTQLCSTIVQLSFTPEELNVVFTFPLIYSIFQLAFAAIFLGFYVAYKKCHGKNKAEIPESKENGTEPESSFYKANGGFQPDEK
Description: In vitro inhibitory activity of all target compounds against ASBT was evaluated using a radioisotope-based assay. All the newly synthesized derivatives were initially tested at 10 μM concentration (Table 1).
HEK293T was obtained from the American Type Culture Collection (Manassas, VA, USA), and grown in MEM supplemented with 100 U/mL penicillin and […] streptomycin and 10% heat-inactivated fetal bovine serum. Human ASBT expression construct was prepared as previously described. HEK293T cells were seeded in 12 well plates and transiently transfected with 0.5 μg/well pcDNA3.1/ASBT or negative control plasmid pcDNA3.1 using lipofactamine 2000 (Invitrogen, Carlsbad, CA, USA) according to the manufacturer’s instructions. Twenty-four hours after transfection, HEK293T cells were assayed for taurocholic acid uptake as previously described with minor modifications. […] To terminate the transport process, the plates were chilled on ice and the cells were immediately washed with ice-cold buffer three times. Cells were lysed with 0.3 mL lysis buffer (0.5% triton x-100) and shaken vigorously for 20 min. The radioactivity of the cell lysate was counted using a MicroBeta^2 Liquid Scintillation and Luminescence Counter (PerkinElmer Life Sciences). Protein concentration of the lysate was used to normalize uptake activity.
The inhibition rate was calculated using the following formula: Inhibition Rate (%) = [(1 − (A − C)/(B − C)] × 100
A, [^3H] uptake value of test compound in [^3H]-TCA buffer added to pcDNA3.1/ASBT transfected cells; B, [^3H] uptake value of DMSO (without inhibitor) in [^3H]-TCA buffer added to pcDNA3.1/ASBT transfected cells; C, [^3H] uptake value of Blank sample (DMSO) in [^3H]-TCA buffer added to empty vector (pcDNA3.1) transfected cells.

Row | Compound | melting point [°C] | inhibition at 10 µM [2] [%] | IC50 [2] [nM] | IC50 [1] [µM]
1 | O=C(Nc1ccc(Cl)c(Cl)c1)c1ccccc1NS(=O)(=O)c1cccc([N+](=O)[O-])c1 [Compound 5a1, N-(3,4-Dichlorophenyl)-2-(3-nitrophenylsulfonamido)benzamide] | – | – | – | 4
2 | COc1cccc(S(=O)(=O)Nc2ccccc2C(=O)Nc2ccc(Cl)c(Cl)c2)c1 [Compound 5f5, N-(3,4-Dichlorophenyl)-2-(3-methoxyphenylsulfonamido)benzamide] | 160.3 to 161.4 | 20.1 ± 1.9 | – | –
3 | O=C(Nc1ccc(Cl)cc1Cl)c1ccccc1NS(=O)(=O)c1cccc(OC(F)(F)F)c1 [Compound 5g1, N-(2,4-Dichlorophenyl)-2-(3-(trifluoromethoxy)phenylsulfonamido)benzamide] | 151.6 to 152.8 | 89.3 ± 3.3 | 910 ± 180 | –
4 | O=C(Nc1ccc(F)c(Cl)c1)c1ccccc1NS(=O)(=O)c1cccc(OC(F)(F)F)c1 [Compound 5g2, N-(3-Chloro-4-fluorophenyl)-2-(3-(trifluoromethoxy)phenylsulfonamido)benzamide] | 157.3 to 158.6 | 98.6 ± 2.6 | 110 ± 50 | –

Now from value to compound, other results behind:

Row | melting point [°C] | inhibition at 10 µM [2] [%] | IC50 [2] [nM] | Compound | IC50 [1] [µM]
5 | 179.4 to 180.5 | 91.8 ± 3.5 | 830 ± 110 | Cc1ccc(NC(=O)c2ccccc2NS(=O)(=O)c2cccc(OC(F)(F)F)c2)cc1C(F)(F)F [Compound 5g3, N-(4-Methyl-3-(trifluoromethyl)phenyl)-2-(3-(trifluoromethoxy)phenylsulfonamido)benzamide] | –
6 | 169.1 to 170.4 | 88.1 ± 2.7 | 1030 ± 160 | O=C(Nc1cccc(OC(F)(F)F)c1)c1ccccc1NS(=O)(=O)c1cccc(OC(F)(F)F)c1 [Compound 5g4, N-(3-(Trifluoromethoxy)phenyl)-2-(3-(trifluoromethoxy)phenylsulfonamido)benzamide] | –
